Results taken from PMC8318231, “Rate-of-Kill (RoK) assays to triage large compound sets for Chagas disease drug discovery: Application to GSK Chagas Box” (PLoS Neglected Tropical Diseases, 2021).
Like-named read-outs stand apart in the source and are kept apart here.

Assays:
[1] = tested on: H9c2 (rat cardiomyocytes); assay: RoK assay, number of host cells nuclei (drug-related cytotoxicity, H9c2 output, Cmin_Tox); details: H9c2 host cells
Experimental: For this high-content intracellular imaging assay, H9c2 cells were seeded in 225 cm^2 T- FLASK in DMEM with 10% FBS for 4 h to allow attachment. T. cruzi trypomastigotes, collected at days 5 to 8 after infection from LLC-MK2 parasite infected cultures, were allowed to swim out for 4 h at 37°C from a centrifuged pellet (1,600 x g / 10 min). Trypomastigotes were then collected and counted in a CASY Cell Counter using the 60 μm capillary. […] Cells were washed once with PBS before incubation of the infected H9c2 monolayer with trypsin (Life-Technologies) to detach cells from the flask. Cells were counted in a CASY Cell Counter, using the 150 μm capillary, and their density set at 5 x 10^4 cells/mL in supplemented DMEM. Infected H9c2 were dispensed into 384-well plates at 50 μL per well using a Multidrop Combi dispenser. Control wells used to determine a 100% parasitic growth (full 6th column of each plate) were left untreated, whereas not infected cells were added in the control wells used as 0% parasite growth (or 100% parasite growth inhibition; full 18th column of each plate). The four plates corresponding to each RoK assay were predispensed for the same mother plate. […] Cultures were then fixed and stained with 50 μL per well of a PBS solution containing 4% formaldehyde and 2 μM DRAQ5 DNA dye (BioStatus, UK). Then plates were read in a PerkinElmer Opera Phenix using a 20x objective, 3 fields per well. DRAQ5 signal was detected using 640 nm excitation laser and a 690/50 nm emission detection filter. Automated image analysis was performed with a script developed on Acapella High Content Imaging and Analysis Software (PerkinElmer). Two outputs were provided for each sample well: (1) number of host cells nuclei to determine drug-related cytotoxicity (aka H9c2) and (2) number of amastigotes per cell as infection level measurement (aka AM/CELL). Each output is plotted as a time course for each compound at every concentration. This assay was adapted from Alonso-Padilla et al. and Peña et al..
• ME (Maximum Effect) is the maximum percentage of parasite burden reduction reached by any compound concentration. Compounds that decrease the initial parasite load will show a positive value of ME, whereas compounds that allow the progression of infection will render a negative ME value. […] It is calculated for the MCC50 (t50%_MCC50) and for the maximum concentration (t50%_Cmax). […] The value of this parameter is not either interpolated or extrapolated, and it refers to the first experimental time-course point at which a 50% of effect is reached or exceeded. • tlag defines the time elapsed for one particular concentration to reduce parasite burden between two consecutive points at any moment of the time course. It is calculated for the MCC50 (tlag_MCC50) and for the maximum concentration (tlag_Cmax). The value of this parameter is not either interpolated or extrapolated, and it refers to the first experimental time-course point of a positive slope in the normalised plot (i.e. %Cidal_Response). • Cmin_Tox (Minimal CytoToxic Concentration) is the lowest compound concentration that is reducing the number of host mammalian cells below 50% of initial cell density. Cytotoxic compounds may mislead a bona fide antiparasitic action. Therefore, this descriptor is used to flag this kind of compounds and warn about the genuine meaning of the rest of descriptors.

[2] = tested on: T. cruzi Tulahuen trypomastigotes; assay: T. cruzi trypomastigote assay (Cell Titer-Glo viability, ATP luminescence); format: cell-based, Trypanosoma cruzi; details: for Trypomastigotes pIC50 48 hours: 48 hours incubation; for Trypomastigotes pIC50 48 hours / Trypomastigotes pIC50 72 hours: pIC50 = -log10 IC50 in molar units; for Trypomastigotes pIC50 72 hours: 72 hours incubation; for activity in trypomastigotes assay (in words): 48 and 72 hours; for 72 pIC50 (trypomastigotes, raw data of Fig 1D): 72 hours, plotted values, censored values given without sign; for 48 pIC50 / 72 pIC50: trypomastigote assay; for IC50: Trypanosoma cruzi, TULAHUEN
Procedure, shortened: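 Compounds were tested in dose response or once at a final 5 μM against 5 × 10^4 trypomastigotes per well (DMEM, 2% FBS), collected on days 5–8 from LLC-MK2 infected cultures. ATP luminescence via CellTiter-Glo reports live parasites; DMSO defines 0% and cell-free wells 100% effect.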

[3] = tested on: TcCYP51; details: cited from earlier work; for CYP51 pIC50: formerly reported

| Compound | Cmin_Tox [1] | Trypomastigotes pIC50 48 hours [2] | Trypomastigotes pIC50 72 hours [2] | CYP51 pIC50 [3] | activity in trypomastigotes assay (in words) [2] | 72 pIC50 (trypomastigotes, raw data of Fig 1D) [2] | 48 pIC50 ([2]; 48 h, figure 1A) | 72 pIC50 ([2]; 72 h, figure 1A) | 72 pIC50 ([2]; 72 h, figure 1B) | IC50 ([2]; 48 h, read-out: Trypomastigotes pIC50 48 hours (converted)) | IC50 ([2]; 72 h, read-out: Trypomastigotes pIC50 72 hours (converted)) | pIC50 versus trypomastigotes ([2]; invariable at the two incubation times tested) | CYP51 mean ([3]; TcCYP51 enzyme inhibition, mean, figure 1B, ref original boxes paper) |
| --- | --- | --- | --- | --- | --- | --- | --- | --- | --- | --- | --- | --- | --- |
| Cc1cc(N(C)C)nc(Nc2ccccc2C)n1 [TCMDC-143109] | >50 µM | 5.7 | 5.6 | < 4 | – | – | – | – | – | – | – | – | – |
| CCCN(Cc1ccc(OC)c(OC)c1)Cc1cc(=O)c2c(C)cc(C)cc2[nH]1 [TCMDC-143331] | >50 µM | 5.4 | 5.6 | 4.5 | active | – | – | – | – | – | – | – | – |
| O[C@H]1CC[C@H](Nc2nccc(-c3sc(C4CCOCC4)nc3-c3ccc(F)c(F)c3)n2)CC1 [TCMDC-143387] | 16.7 µM | 4.5 | < 4.3 | < 4 | – | – | – | – | – | – | – | – | – |
| COc1cc(C(C)C)c(S(C)(=O)=O)cc1C(=O)N1CCN(c2ccccc2Cl)CC1 [TCMDC-143097] | >50 µM | < 4.3 | < 4.3 | < 4 | – | < 4.3 | < 4.3 | < 4.3 | < 4.3 | – | – | – | – |
| CN(C)Cc1ccc(N2CCC(NS(=O)(=O)c3ccc(Cl)cc3)CC2)cc1 [TCMDC-143623] | 25.3 µM | 4.5 | 4.4 | < 4 | poorly active | – | – | – | – | – | – | – | – |
| CC(C)Nc1nccc(-c2c(-c3ccc(F)cc3)ncn2C2CCOCC2)n1 [TCMDC-143379] | >50 µM | < 4.3 | < 4.3 | < 4 | – | < 4.3 | < 4.3 | < 4.3 | < 4.3 | – | – | – | – |
| O=C(O)/C=C\C(=O)O.O=C(c1ccc(OCCCc2cnc[nH]2)cc1)C1CC1 [TCMDC-143632] | >50 µM | < 4.3 | < 4.3 | 7.3 | – | < 4.3 | < 4.3 | < 4.3 | < 4.3 | – | – | – | – |
| COc1ccc(S(=O)(=O)NCc2ccc(-c3ccc(CN(C)CCO)cc3)cc2)cc1.O=C(O)C(F)(F)F [TCMDC-143549] | >50 µM | 4.6 | < 4.3 | 4.8 | – | – | – | – | – | – | – | – | – |
| O=C(CSc1ccc(F)cc1)N[C@@H](Cc1cnc[nH]1)C(=O)NCCc1ccccc1.O=C(O)C(F)(F)F [TCMDC-143317] | >50 µM | < 4.3 | < 4.3 | 7.1 | – | < 4.3 | < 4.3 | < 4.3 | < 4.3 | – | – | – | – |
| CCOc1cnn(C)c(=O)c1Nc1ccc(C(=O)NCc2ccc(F)cc2)cc1 [TCMDC-143319] | >50 µM | < 4.3 | < 4.3 | 5.4 | – | < 4.3 | < 4.3 | < 4.3 | < 4.3 | – | – | – | – |
| c1ccc(CCNCc2cncc3nc(-c4cnccn4)n(C4CCCCC4)c23)cc1 [TCMDC-143346] | >50 µM | < 4.3 | < 4.3 | 7 | – | < 4.3 | < 4.3 | < 4.3 | < 4.3 | – | – | – | – |
| CNc1c(C(N)=O)c(-c2ccc3scnc3c2)nn1CC(F)(F)F.O=C(O)C(F)(F)F [TCMDC-143463] | >50 µM | < 4.3 | < 4.3 | < 4 | – | < 4.3 | < 4.3 | < 4.3 | < 4.3 | – | – | – | – |
| CN(C)CCOc1ccc(N2CCN(S(=O)(=O)c3ccc(Cl)cc3)CC2)cc1 [TCMDC-143622] | >50 µM | < 4.3 | < 4.3 | 4.6 | – | < 4.3 | < 4.3 | < 4.3 | < 4.3 | – | – | – | – |
| CCN(Cc1ccncc1)Cc1ccc(NC(=O)c2cc(-c3ccc(F)cc3)n[nH]2)cc1 [TCMDC-143433] | >50 µM | 4.9 | 4.5 | 7.1 | – | – | – | – | – | – | – | – | – |
| CN1CCCN(C(=O)c2ccc(N3CCCC3)cc2Cl)CC1 [TCMDC-143127] | >50 µM | < 4.3 | < 4.3 | < 4 | – | < 4.3 | < 4.3 | < 4.3 | < 4.3 | – | – | – | – |
| O=C(N1CCc2ccccc2CC1)C1(C(=O)N2CCC(n3c(=O)[nH]c4ncccc43)CC2)CC1.O=C(O)C(F)(F)F [TCMDC-143381] | >50 µM | < 4.3 | < 4.3 | 6.5 | – | < 4.3 | < 4.3 | < 4.3 | < 4.3 | – | – | – | – |
| O=C(Cn1ccnc1[N+](=O)[O-])NCc1ccccc1 [Benznidazole, benznidazole, reference compound] | >50 µM | – | – | < 4 | active | – | – | – | – | 6.31 µM | 5.01 µM | 5.3 | 4.3 |
| CCOc1ccc(NC(=O)C=Cc2ccc(CC)o2)cc1 [TCMDC-143160] | 50.0 µM | 5.4 | 5 | < 4 | – | – | – | – | – | – | – | – | – |
| COc1ccccc1-c1c(C)[nH]c2nc(N)nc(C)c12 [TCMDC-143610] | >50 µM | 6.4 | 6.5 | 4.1 | active | – | – | – | – | – | – | – | – |
| COc1cccc(C(=O)[C@H]2C[C@@H]2CN(Cc2cccnc2)Cc2cccnc2)c1 [TCMDC-143593] | >50 µM | 5.2 | < 4.3 | 7.2 | – | – | – | – | – | – | – | – | – |
| O=C(Nc1ccc(Br)c(Cl)c1)Nc1ccc2c(c1)OCO2 [TCMDC-143588] | >50 µM | 5.5 | < 4.3 | < 4 | – | – | – | – | – | – | – | – | – |
| CCCCn1nnnc1CSc1nc(C)cc(C)c1C#N [TCMDC-143315] | >50 µM | 6.6 | 6.8 | 4.3 | – | – | – | – | – | – | – | – | – |
| Cc1sc(C)c(C(F)(F)F)c1CNCCCNc1cc(=O)c2ccccc2[nH]1.Cl [TCMDC-140766] | 50.0 µM | 4.9 | 5.3 | 4.7 | – | – | – | – | – | – | – | – | – |
| Cc1[nH]c2ccccc2c(=O)c1Cc1c(C)[nH]c2ccccc2c1=O [TCMDC-143490] | >50 µM | 5.7 | 4.8 | < 4 | – | – | – | – | – | – | – | – | – |
